Data reported in patent publication US11230538B2, “Herbicides” (SYNGENTA PARTICIPATIONS AG, priority 2016, dated 2022).

Legend:
Type in all cases: in vivo
[1] = tested on: Alopecurus myosuroides (ALOMY); experiment: B2 Post-emergence herbicidal activity; set-up: key: 5=total damage to plant; 0=no damage to plant; conditions: post-emergence application, rate 1000 g/ha, evaluated after 13 days
Outline: (§1)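 Plants grown 8 days in a glasshouse (24/16° C day/night, 14 h light, 65% humidity) were sprayed post-emergence with active ingredient formulated in acetone/water (50:50) containing 0.5% Tween 20. Damage was scored after 13 days on a 0–5 scale (5 = total damage).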

[2] = tested on: Triticum aestivium (TRZAW); experiment: B2 Post-emergence herbicidal activity; set-up: key: 5=total damage to plant; 0=no damage to plant; conditions: post-emergence application, rate 1000 g/ha, evaluated after 13 days
Outline: as §1

[3] = tested on: Setaria fabenri (SETFA); experiment: B2 Post-emergence herbicidal activity; set-up: key: 5=total damage to plant; 0=no damage to plant; conditions: post-emergence application, rate 1000 g/ha, evaluated after 13 days
Outline: as §1

[4] = tested on: Echinochloa crus-galli (ECHCG); experiment: B1 Pre-emergence herbicidal activity; set-up: key to Pre-emergence herbicidal activity, ECHCG (damage score 0-5): 5=total damage to plant; 0=no damage to plant; conditions: pre-emergence application, rate 1000 g/ha, evaluated after 13 days
Outline: (§2)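 Pots of sown seeds were sprayed one day after sowing, pre-emergence, with compound in acetone/water (50:50) containing 0.5% Tween 20. Plants were grown in a glasshouse at 24/16 °C day/night, 14 h light and 65% humidity. Damage was scored after 13 days on a 0 (none) to 5 (total) scale.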

[5] = tested on: Avena fatua (AVEFA); experiment: B1 Pre-emergence herbicidal activity; set-up: key: 5=total damage to plant; 0=no damage to plant; conditions: pre-emergence application, rate 1000 g/ha, evaluated after 13 days
Outline: as §2

[6] = tested on: Alopecurus myosuroides (ALOMY); experiment: B1 Pre-emergence herbicidal activity; set-up: key: 5=total damage to plant; 0=no damage to plant; conditions: pre-emergence application, rate 1000 g/ha, evaluated after 13 days
Outline: as §2

[7] = tested on: Triticum aestivium (TRZAW); experiment: B1 Pre-emergence herbicidal activity; set-up: key: 5=total damage to plant; 0=no damage to plant; conditions: pre-emergence application, rate 1000 g/ha, evaluated after 13 days
Outline: as §2

[8] = tested on: Lolium perenne (LOLPE); experiment: B2 Post-emergence herbicidal activity; conditions: post-emergence application, rate 1000 g/ha, evaluated after 13 days
Experimental: (§3) Seeds of a variety of test species were sown in standard soil in pots: Triticum aestivium (TRZAW), Avena fatua (AVEFA), Alopecurus myosuroides (ALOMY), Echinochloa crus-galli (ECHCG), Lolium perenne (LOLPE), Zea Mays (ZEAMX), Abutilon theophrasti (ABUTH), Amaranthus retroflexus (AMARE) and Setaria fabenri (SETFA). After 8 days cultivation (post-emergence) under controlled conditions in a glasshouse (at 24/16° C., day/night; 14 hours light; 65% humidity), the plants were sprayed with an aqueous spray solution derived from the formulation of the technical active ingredient in acetone I water (50:50) solution containing 0.5% Tween 20 (polyoxyethelyene sorbitan monolaurate, CAS RN 9005-64-5). The test plants were then grown in a glasshouse under controlled conditions (at 24/16° C., day/night; 14 hours light; 65% humidity) and watered twice daily. After 13 days, the test was evaluated (5=total damage to plant; 0=no damage to plant).

[9] = tested on: Echinochloa crus-galli (ECHCG); experiment: B2 Post-emergence herbicidal activity; set-up: key to Post-emergence herbicidal activity, ECHCG (damage score 0-5): 5=total damage to plant; 0=no damage to plant; conditions: post-emergence application, rate 1000 g/ha, evaluated after 13 days
Outline: as §1

[10] = tested on: Avena fatua (AVEFA); experiment: B2 Post-emergence herbicidal activity; conditions: post-emergence application, rate 1000 g/ha, evaluated after 13 days
Experimental: as §3

[11] = tested on: Lolium perenne (LOLPE); experiment: B1 Pre-emergence herbicidal activity; conditions: pre-emergence application, rate 1000 g/ha, evaluated after 13 days
Outline: as §2

[12] = tested on: Setaria fabenr (SETFA); experiment: B1 Pre-emergence herbicidal activity; set-up: key to Pre-emergence herbicidal activity, SETFA (damage score 0-5): 5=total damage to plant; 0=no damage to plant; conditions: pre-emergence application, rate 1000 g/ha, evaluated after 13 days
Outline: as §2

Compound	Post-emergence herbicidal activity, ALOMY (damage score 0-5) [1]	Post-emergence herbicidal activity, TRAZW (damage score 0-5) [2]	Post-emergence herbicidal activity, SETFA (damage score 0-5) [3]	Pre-emergence herbicidal activity, ECHCG (damage score 0-5) [4]	Pre-emergence herbicidal activity, AVEFA (damage score 0-5) [5]	Pre-emergence herbicidal activity, ALOMY (damage score 0-5) [6]	Pre-emergence herbicidal activity, TRAZW (damage score 0-5) [7]	Post-emergence herbicidal activity, LOLPE (damage score 0-5) [8]	Post-emergence herbicidal activity, ECHCG (damage score 0-5) [9]	Post-emergence herbicidal activity, AVEFA (damage score 0-5) [10]	Pre-emergence herbicidal activity, LOLPE (damage score 0-5) [11]	Pre-emergence herbicidal activity, SETFA (damage score 0-5) [12]
CC(=O)N(C(C)=O)c1ccc(-c2cncnc2)nc1C(F)(F)F [Compound C6]	1	1	5	4	4	1	1	4	4	4	2	4
CC(=O)Nc1ccc(-c2cncnc2)nc1C(F)(F)F [Compound C7]	1	1	5	4	3	0	0	3	4	4	1	4
CC(C)C(=O)Nc1ccc(-c2cncnc2)nc1C(F)(F)F [Compound C8]	3	2	5	4	3	0	0	2	4	4	2	5
CC(C)C(=O)Nc1ccc(-c2cncc(C#N)c2)nc1C(F)(F)F [Compound C11]	1	0	5	1	0	0	0	1	3	2	1	4
CC(C)C(=O)Nc1ccc(-c2cncc(Cl)c2)nc1C(F)(F)F [Compound C12]	1	0	5	2	0	0	0	2	5	3	1	4
CCC(=O)Nc1ccc(-c2cncc(F)c2)nc1C(F)(F)F [Compound C13]	1	0	5	4	2	1	0	4	5	4	3	5
O=C(Nc1ccc(-c2cncc(F)c2)nc1C(F)(F)F)c1ccccc1 [Compound C14]	1	1	5	5	1	2	0	4	5	4	2	4
CCC(=O)N(C)c1ccc(-c2cncc(F)c2)nc1C(F)(F)F [Compound C15, N-[6-(5-fluoro-3-pyridyl)-2-(trifluoromethyl)-3-pyridyl]-N-methyl-propanamide]	1	1	5	5	0	0	0	3	5	3	1	5
C=CCN(C(=O)C(C)C)c1ccc(-c2cncc(F)c2)nc1C(F)(F)F [Compound C16]	1	1	5	4	1	0	0	3	5	4	2	5
C/C=C/C(=O)Nc1ccc(-c2cncc(F)c2)nc1C(F)(F)F [Compound C23]	0	0	5	5	3	1	1	3	5	3	1	5
COCCC(=O)Nc1ccc(-c2cncc(F)c2)nc1C(F)(F)F [Compound C24]	1	1	5	4	4	1	0	4	5	4	1	5
